Results from patent publication US5831026A, “Process for purifying factor VIII” (Pharmacia & Upjohn AB, priority 1994, dated 1998).

Legend:
[1] = tested on: metal-dependent proteases; experiment: Protease assay with resorufin-labeled casein in harvest solution (conditioned medium); assay type: biochemical, Chinese Hamster; conditions: for Mean absorbance corrected: blank subtracted
Description: The method chosen was a protease assay with casein which was resorufin-labeled. By treatment with proteases, resorufin-labeled peptides are released from the casein. The concentration of these resorufin-labeled peptides in the supernatant is a measure of the proteolytic activity present. The test sample was incubated at 37° C. for a period of time which was dependent upon the sample at issue. The absorption wave-length chosen was 574 run throughout the tests. […]
Preincubation of the conditioned medium with or without EDTA was conducted at 37° C. for 2 h. After the addition of substrate, further incubation was carried out for 17 h. The pH in the incubation mixture was 7.5.
Absorbance corrected, refers to the absorption after subtraction of the blank value.
Conditioned medium (containing human serum albumin) was clarified and imidazole subsequently added in an amount ranging from 3.6 mM up to 360 mM.
Conditioned medium (containing human serum albumin) was clarified and histidine subsequently added in an amount ranging from 0.14 mM to 13.6 mM.

factor VIII = experiment: Activity of factor VIII after addition of complexing agent to eluted solution from SP Sepharose FF, COATEST chromogenic assay; assay type: biochemical; conditions: Example 8; for Factor VIII activity (%): 0 h without additive = 100
Description: Tests without EDTA present were carried out for comparison.
(§1) A conditioned medium (containing human serum albumin) from a different harvest than the previous Examples, was clarified and buffered with NH4 Ac. […] After elution, various amounts of EDTA were added to the resulting solution. Tests without EDTA present were carried out for comparison. The procoagulant activity of factor VIII was determined after storage at ambient temperature for up to 246 hours, in accordance to the procedure described in Example 5.
as §1, with “28” for “246”
A conditioned medium (containing human serum albumin) from a different harvest than the previous Examples, was clarified and buffered with NH4 Ac. The resulting solution was loaded onto a column containing SP SEPHAROSE® FF. This cation-exchange chromatography step was performed at 10° C. […] After elution, EDTA or 1,10-Phenanthroline were added to the resulting solution.

[2] = 5 mM Phenanthroline, incubation 4.5 h ambient
[3] = 5 mM Phenanthroline, incubation 7.5 h ambient
[4] = 5 mM Phenanthroline, incubation 24 h ambient
[5] = 11 mM Phenanthroline, incubation 4.5 h ambient
[6] = 11 mM Phenanthroline, incubation 7.5 h ambient
[7] = 11 mM Phenanthroline, incubation 24 h ambient

## N[C@@H](Cc1c[nH]cn1)C(=O)O [Histidine, L-histidine]
[1]; 0.14 mM histidine
  Mean absorbance: 2561
  Protease activity (%): 79%
  Mean absorbance corrected: 1591
[1]; 0.7 mM histidine
  Mean absorbance: 2857
  Protease activity (%): 94%
  Mean absorbance corrected: 1887
[1]; 1.4 mM histidine
  Mean absorbance: 3153
  Protease activity (%): 108%
  Mean absorbance corrected: 2183
[1]; 7 mM histidine
  Mean absorbance: 1495
  Protease activity (%): 26%
  Mean absorbance corrected: 525
[1]; 13.6 mM histidine
  Mean absorbance: 1684
  Protease activity (%): 35%
  Mean absorbance corrected: 714

## c1cnc2c(c1)ccc1cccnc12 [Phenanthroline, 1,10-Phenanthroline]
Factor VIII; [2]
  Factor VIII activity (IU/ml): 750 IU/ml
  Factor VIII activity (%): 84%
Factor VIII; [3]
  Factor VIII activity (IU/ml): 964 IU/ml
  Factor VIII activity (%): 109%
Factor VIII; [4]
  Factor VIII activity (IU/ml): 933 IU/ml
  Factor VIII activity (%): 105%
Factor VIII; [5]
  Factor VIII activity (IU/ml): 869 IU/ml
  Factor VIII activity (%): 98%
Factor VIII; [6]
  Factor VIII activity (IU/ml): 996 IU/ml
  Factor VIII activity (%): 112%
Factor VIII; [7]
  Factor VIII activity (IU/ml): 916 IU/ml
  Factor VIII activity (%): 103%

## c1c[nH]cn1 [imidazole]
[1]; 3.6 mM imidazole
  Mean absorbance: 2891
  Protease activity (%): 95%
  Mean absorbance corrected: 1921
[1]; 18 mM imidazole
  Mean absorbance: 2985
  Protease activity (%): 100%
  Mean absorbance corrected: 2015
[1]; 36 mM imidazole
  Mean absorbance: 3190
  Protease activity (%): 110%
  Mean absorbance corrected: 2220
[1]; 180 mM imidazole
  Mean absorbance: 1258
  Protease activity (%): 14%
  Mean absorbance corrected: 288
[1]; 360 mM imidazole
  Mean absorbance: 1143
  Protease activity (%): 9%
  Mean absorbance corrected: 173
